Several values for one entry are separate records, joined by “and”; a condition that tells them apart may be missing. Equal values may be shown once.
Assays:
Type in all cases: cell-based
AHAS [1] = test: in vivo AHAS assay, maize leaf discs with external supplement
Description: (§1) The procedure for the preparation of an in vivo AHAS assay is described below:
(§2) For the experiments, plants are grown from seed in soil in a greenhouse. Most experiments used wild type and imidazolinone resistant varieties of wheat, canola, rice, sunflower, and maize.
(§3) For the assay, a a microtiter plate is set up with 100 μl of one of the following solutions in each well: • a. […] Plant., 15 473-497 (1962)); 500 μM CPCA (cyclopropyldicarboxylic acid); • b. Solution B: Solution A+alanine (or other supplements); • c. Solution C: Solution A+a pyruvate salt (or other supplements).
(§4) Plant material is excised from the newest emerging, rapidly growing leaf or stem from the test plant and placed in one of the microtiter plates. Usually, 5 mm leaf discs are cut from the newest emerging leaf. At least 2 discs per plant are cut. One disc is put in a well with Solution A and the other disc in a well with one of the other Solutions B or C (what solution are you using for background?).
(§5) After all wells in the microtiter plate contain plant material, the plate is covered with the microtiter plate cover and the plate with material is placed in a chamber with continuous fluorescent lights for 12 to 16 hours. The incubation is stopped by placing the plate in −20° C. freezer. After tissue and solutions freeze, the plate is thawed at room temperature and 25 μL of 5% sulfuric acid are added to each well. After incubation at 60° C. for 15 minutes, 175 μL of a freshly prepared mixture of α-naphthol (2.5%) and creatine (0.25%) in 2 N NaOH are added to each well and the plate is incubated at 60° C. for 15 minutes.
(§6) 200 μL from each well are transferred to a new plate and OD530 on microtiter plate is readed by a spectrophotometer.

AHAS [2] = test: in vivo AHAS assay, wheat leaf discs with external supplement; details: 14 hours
Description: as §1, §2
(§7) For the assay, a a microtiter plate is set up with 100 μl of one of the following solutions in each well: • a. Solution A: 10 mM phosphate buffer, pH 6; 10% Murashige and Skoog basal mineral salts (according to Murashige, T. and Skoog, F., Physiol. Plant., 15 473-497 (1962)); 500 μM CPCA (cyclopropyldicarboxylic acid); • b. Solution B: Solution A+alanine (or other supplements); • c. Solution C: Solution A+a pyruvate salt (or other supplements).
Plant material is excised from the newest emerging, rapidly growing leaf or stem from the test plant and placed in one of the microtiter plates. Usually, 5 mm leaf discs are cut from the newest emerging leaf. At least 2 discs per plant are cut. One disc is put in a well with Solution A and the other disc in a well with one of the other Solutions B or C (what solution are you using for background?). […]
as §6

AHAS [3] = test: in vivo AHAS assay, rice leaf discs with external supplement
Description: as §1, §2, §3, §4, §5, §6

AHAS [4] = test: in vivo AHAS assay, sunflower leaf discs with external supplement; details: 14 hours
Description: as §1, §2, §3, §4, §5, §6

AHAS [5] = test: in vivo AHAS assay, canola leaf discs with external supplement; details: for % of No Alaninor Pyruvate: Pyruvate 0 mM
Description: as §1, §2, §7, §4, §5, §6

AHAS [6] = test: as above
[7] = alanine 1.000 % vs 0.000 %, 14 hours
[8] = alanine 1.000 %, 14 hours, 500 μM CPCA
[9] = canola, Alanine (100 mM), replicates 1-3, 14 hours

C[C@H](N)C(=O)O [Alanine, L-alanine]
Ratio (Ala/No Ala) (AHAS [1]; [7]): 1.7 | OD 530 (AHAS [1]; [8]): 0.203 | Ratio (Ala/No Ala) (AHAS [1]; pH 4, 14 hours): 1.89 | in vivo AHAS activity, Alanine (%) 1 (AHAS [1]; pH 4, alanine 1 %, 14 hours): 0.909 | Ratio (Ala/No Ala) (AHAS [1]; pH 5, 14 hours): 3.50 | in vivo AHAS activity, Alanine (%) 1 (AHAS [1]; pH 5, alanine 1 %, 14 hours): 0.847 | Ratio (Ala/No Ala) (AHAS [1]; pH 6, 14 hours): 5.71 | in vivo AHAS activity, Alanine (%) 1 (AHAS [1]; pH 6, alanine 1 %, 14 hours): 1.033 | Ratio (Ala/No Ala) (AHAS [1]; pH 7, 14 hours): 4.32 | in vivo AHAS activity, Alanine (%) 1 (AHAS [1]; pH 7, alanine 1 %, 14 hours): 1.128 | Ratio (Ala/No Ala) (AHAS [2]; alanine 1.000 % vs 0.000 %): 2.1 | OD 530 (AHAS [2]; alanine 1.000 %, 500 μM CPCA): 0.832 | Ratio (Ala/No Ala) (AHAS [3]; [7]): 7.0 | OD 530 (AHAS [3]; [8]): 1.257 | Ratio (Ala/No Ala) (AHAS [3]; pH 4, 14 hours): 2.83 | in vivo AHAS activity, Alanine (%) 1 (AHAS [3]; pH 4, alanine 1 %, 14 hours): 0.903 | Ratio (Ala/No Ala) (AHAS [3]; pH 5, 14 hours): 3.57 | in vivo AHAS activity, Alanine (%) 1 (AHAS [3]; pH 5, alanine 1 %, 14 hours): 0.731 | Ratio (Ala/No Ala) (AHAS [3]; pH 6, 14 hours): 3.65 | in vivo AHAS activity, Alanine (%) 1 (AHAS [3]; pH 6, alanine 1 %, 14 hours): 0.639 | Ratio (Ala/No Ala) (AHAS [3]; pH 7, 14 hours): 3.31 | in vivo AHAS activity, Alanine (%) 1 (AHAS [3]; pH 7, alanine 1 %, 14 hours): 0.58 | Ratio (Ala/No Ala) (AHAS [4]; Sunflower, alanine 1.000 % vs 0.000 %): 3.8 | OD 530 (AHAS [4]; Sunflower, alanine 1.000 %, 500 μM CPCA): 1.857 | Ratio (Ala/No Ala) (AHAS [4]; Sunflower, pH 4): 4.67 | in vivo AHAS activity, Alanine (%) 1 (AHAS [4]; Sunflower, pH 4): 1.682 | Ratio (Ala/No Ala) (AHAS [4]; Sunflower, pH 5): 3.62 | in vivo AHAS activity, Alanine (%) 1 (AHAS [4]; Sunflower, pH 5): 0.745 | Ratio (Ala/No Ala) (AHAS [4]; Sunflower, pH 6): 5.20 | in vivo AHAS activity, Alanine (%) 1 (AHAS [4]; Sunflower, pH 6): 0.843 | Ratio (Ala/No Ala) (AHAS [4]; Sunflower, pH 7): 4.10 | in vivo AHAS activity, Alanine (%) 1 (AHAS [4]; Sunflower, pH 7): 0.48 | OD 530 (AHAS [4]; sunflower, 1% Alanine, disc size 0.25 cm^2, 7 discs): 1.861 | OD 530 (AHAS [4]; sunflower, 1% Alanine, disc size 0.56 cm^2, 3 discs): 0.695 | OD 530 (AHAS [4]; sunflower, 1% Alanine, disc size 0.82 cm^2, 2 discs): 0.646 | OD 530 (AHAS [4]; sunflower, 1% Alanine, disc size 1.76 cm^2, 1 disc): 0.447 | Ratio (Ala/No Ala) (AHAS [5]; Canola, alanine 1.000 % vs 0.000 %, 14 hours): 5.4 | OD 530 (AHAS [5]; Canola, alanine 1.000 %, 14 hours, 500 μM CPCA): 2.838 | in vivo AHAS activity, Alanine (%) 1 (AHAS [5]; Canola, pH 4, alanine 1 %, 14 hours): 2.271 | Ratio (Ala/No Ala) (AHAS [5]; Canola, pH 5, 14 hours): 2.94 | in vivo AHAS activity, Alanine (%) 1 (AHAS [5]; Canola, pH 5, alanine 1 %, 14 hours): 2.383 | Ratio (Ala/No Ala) (AHAS [5]; Canola, pH 6, 14 hours): 3.12 | in vivo AHAS activity, Alanine (%) 1 (AHAS [5]; Canola, pH 6, alanine 1 %, 14 hours): 2.036 | Ratio (Ala/No Ala) (AHAS [5]; Canola, pH 7, 14 hours): 2.38 | Increased Activity (%) (AHAS [5]; canola 45A71, alanine 0.063 % compared with no alanine): 150% | OD 530 (AHAS [5]; canola 45A71, alanine 0.063 %, pH 6, 14 hours): 0.785 | Increased Activity (%) (AHAS [5]; canola 45A71, alanine 0.125 % compared with no alanine): 182% | OD 530 (AHAS [5]; canola 45A71, alanine 0.125 %, pH 6, 14 hours): 0.955 | Increased Activity (%) (AHAS [5]; canola 45A71, alanine 0.25 % compared with no alanine): 181% | OD 530 (AHAS [5]; canola 45A71, alanine 0.25 %, pH 6, 14 hours): 0.946 | Increased Activity (%) (AHAS [5]; canola 45A71, alanine 0.5 % compared with no alanine): 198% | OD 530 (AHAS [5]; canola 45A71, alanine 0.5 %, pH 6, 14 hours): 1.038 | Increased Activity (%) (AHAS [5]; canola 45A71, alanine 1 % compared with no alanine): 262% | OD 530 (AHAS [5]; canola 45A71, alanine 1 %, pH 6, 14 hours): 1.373 | Increased Activity (%) (AHAS [5]; canola 45A71, alanine 2 % compared with no alanine): 290% | OD 530 (AHAS [5]; canola 45A71, alanine 2 %, pH 6, 14 hours): 1.518 | Increased Activity (%) (AHAS [5]; canola 45A71, alanine 4 % compared with no alanine): 190% | OD 530 (AHAS [5]; canola 45A71, alanine 4 %, pH 6, 14 hours): 0.997 | Increased Activity (%) (AHAS [5]; canola Westar, alanine 0.063 % compared with no alanine): 195% | OD 530 (AHAS [5]; canola Westar, alanine 0.063 %, pH 6, 14 hours): 0.978 | Increased Activity (%) (AHAS [5]; canola Westar, alanine 0.125 % compared with no alanine): 177% | OD 530 (AHAS [5]; canola Westar, alanine 0.125 %, pH 6, 14 hours): 0.885 | Increased Activity (%) (AHAS [5]; canola Westar, alanine 0.25 % compared with no alanine): 239% | OD 530 (AHAS [5]; canola Westar, alanine 0.25 %, pH 6, 14 hours): 1.197 | Increased Activity (%) (AHAS [5]; canola Westar, alanine 0.5 % compared with no alanine): 229% | OD 530 (AHAS [5]; canola Westar, alanine 0.5 %, pH 6, 14 hours): 1.149 | Increased Activity (%) (AHAS [5]; canola Westar, alanine 1 % compared with no alanine): 396% | OD 530 (AHAS [5]; canola Westar, alanine 1 %, pH 6, 14 hours): 1.983 | Increased Activity (%) (AHAS [5]; canola Westar, alanine 2 % compared with no alanine): 250% | OD 530 (AHAS [5]; canola Westar, alanine 2 %, pH 6, 14 hours): 1.25 | Increased Activity (%) (AHAS [5]; canola Westar, alanine 4 % compared with no alanine): 201% | OD 530 (AHAS [5]; canola Westar, alanine 4 %, pH 6, 14 hours): 1.009 | % of No Alaninor Pyruvate (AHAS [5]; canola, Alanine 0.5 %, 14 hours): 144% | % of No Alaninor Pyruvate (AHAS [5]; canola, Alanine 1 %, 14 hours): 174% | % of 0/0 (AHAS [5]; [9]): 129% and 104% and 100% | OD 530, Avg. of the treated discs (AHAS [5]; [9]): 1.538 and 1.574 and 1.298 | OD 530, Treated (AHAS [5]; canola, Alanine (100 mM), single treated discs, replicates 1-3, 14 hours): 1.529 and 1.487 and 1.335 and 1.760 and 1.691 and 1.551 and 1.498 and 1.571 and 1.007 | Ratio (Ala/No Ala) (AHAS [6]; pH 4, 14 hours): 2.78 | in vivo AHAS activity, Alanine (%) 1 (AHAS [6]; pH 7, alanine 1 %, 14 hours): 2.299

Reference: patent US20050014647A1, “Method and composition for determining resistance to an acetohydroxy-acid synthase inhibitor” (priority 2001, published 2005)
